Reference: patent US8796289B2 (AbbVie Inc., priority 2011, dated 2014)

biological target: GST-tagged-Wee1 kinase (Homo sapiens, UniProt P30291); experiment: Wee1 time-resolved fluorescence equilibrium binding assay (displacement of Oregon Green-labeled ATP-competitive kinase probe)
Description: Wee1 kinase was assayed using a time-resolved fluorescence equilibrium binding assay monitoring displacement of a rapidly reversible Oregon Green-labeled ATP-competitive kinase probe (N-(2-(2-(2-(4-(4-(5-chloro-4-(2-(1-hydroxycyclobutyl)thiazol-5-yl)-1H-pyrrolo[2,3-b]pyridin-2-yl)phenyl)piperazin-1-yl)ethoxy)ethoxy)ethyl)-2′,7′-difluoro-3′,6′-dihydroxy-3-oxo-3H-spiro[isobenzofuran-1,9′-xanthene]-5-carboxamide) by competitive Wee1 inhibitors.

GST-tagged-Wee1 kinase, sequence (P30291 whole entry): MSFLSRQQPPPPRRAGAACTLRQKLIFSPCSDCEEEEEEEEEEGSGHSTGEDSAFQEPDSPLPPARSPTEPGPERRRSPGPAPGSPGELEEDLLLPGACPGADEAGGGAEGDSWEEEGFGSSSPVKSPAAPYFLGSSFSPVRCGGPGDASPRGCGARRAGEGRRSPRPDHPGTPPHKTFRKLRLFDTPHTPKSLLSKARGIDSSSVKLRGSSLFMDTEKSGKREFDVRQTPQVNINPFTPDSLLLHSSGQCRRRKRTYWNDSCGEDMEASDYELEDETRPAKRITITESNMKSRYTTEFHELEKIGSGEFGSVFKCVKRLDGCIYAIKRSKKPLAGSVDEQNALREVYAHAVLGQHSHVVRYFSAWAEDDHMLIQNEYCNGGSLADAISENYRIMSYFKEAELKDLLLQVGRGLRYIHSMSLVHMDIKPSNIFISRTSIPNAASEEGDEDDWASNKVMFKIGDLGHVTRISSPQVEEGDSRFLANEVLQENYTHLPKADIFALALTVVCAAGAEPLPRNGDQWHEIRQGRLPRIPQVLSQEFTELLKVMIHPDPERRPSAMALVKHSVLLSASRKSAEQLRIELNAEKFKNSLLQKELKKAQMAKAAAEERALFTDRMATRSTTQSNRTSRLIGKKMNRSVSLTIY

SMILES | Ki [nM]
O=c1c2cnc(Nc3ccc(N4CCNCC4)cc3)nc2c(C2CCC2)nn1-c1c(Cl)cccc1Cl [Example 279, 8-cyclobutyl-6-(2,6-dichlorophenyl)-2-{[4-(piperazin-1-yl)phenyl]amino}pyrimido[4,5-d]pyridazin-5(6H)-one] | 1.2
Cc1ccccc1-n1nc(-c2cccs2)c2nc(Nc3ccc4c(c3)CN(C)CC4)ncc2c1=O [Example 164, 6-(2-methylphenyl)-2-[(2-methyl-1,2,3,4-tetrahydroisoquinolin-7-yl)amino]-8-(2-thienyl)pyrimido[4,5-d]pyridazin-5(6H)-one] | 0.5
CC(=O)N1Cc2cc(Nc3ncc4c(=O)n(-c5c(Cl)cccc5Cl)nc(C)c4n3)ccc2C2(CC2)C1 [Example 417, 2-[(2′-acetyl-2′,3′-dihydro-1′H-spiro[cyclopropane-1,4′-isoquinolin]-7′-yl)amino]-6-(2,6-dichlorophenyl)-8-methylpyrimido[4,5-d]pyridazin-5(6H)-one] | 0.31
CN1Cc2cc(Nc3ncc4c(=O)n(CCO)nc(-c5ccccn5)c4n3)ccc2C(C)(C)C1 [Example 242, 6-(2-hydroxyethyl)-8-(pyridin-2-yl)-2-[(2,4,4-trimethyl-1,2,3,4-tetrahydroisoquinolin-7-yl)amino]pyrimido[4,5-d]pyridazin-5(6H)-one] | 50
Cc1nn(-c2c(Cl)cccc2Cl)c(=O)c2cnc(Nc3ccc4c(c3)CNC4)nc12 [Example 451, 6-(2,6-dichlorophenyl)-2-(2,3-dihydro-1H-isoindol-5-ylamino)-8-methylpyrimido[4,5-d]pyridazin-5(6H)-one] | 0.19
CN1CCC(n2nc(-c3ccccn3)c3nc(Nc4ccc(N5CCNCC5)cc4)ncc3c2=O)CC1 [Example 322, 6-(1-methylpiperidin-4-yl)-2-{[4-(piperazin-1-yl)phenyl]amino}-8-(pyridin-2-yl)pyrimido[4,5-d]pyridazin-5(6H)-one] | > 3140
O=c1c2cnc(Nc3ccc4c(c3)CNCC43CC3)nc2c(-c2cccc(F)n2)nn1-c1c(Cl)cccc1Cl [Example 257, 6-(2,6-dichlorophenyl)-2-(2′,3′-dihydro-1′H-spiro[cyclopropane-1,4′-isoquinolin]-7′-ylamino)-8-(6-fluoropyridin-2-yl)pyrimido[4,5-d]pyridazin-5(6H)-one] | 2
O=c1c2cnc(Nc3ccc(N4CCNCC4)cc3)nc2c(C(F)(F)F)nn1-c1c(Cl)cccc1Cl [Example 418, 6-(2,6-dichlorophenyl)-2-{[4-(piperazin-1-yl)phenyl]amino}-8-(trifluoromethyl)pyrimido[4,5-d]pyridazin-5(6H)-one] | 0.35
Cc1ccccc1-n1nc(-c2ccco2)c2nc(Nc3ccc(N4CCN(C(C)C)CC4)cc3)ncc2c1=O [Example 107, 8-(2-furyl)-2-{[4-(4-isopropylpiperazin-1-yl)phenyl]amino}-6-(2-methylphenyl)pyrimido[4,5-d]pyridazin-5(6H)-one] | 1
COCCn1ccc(-c2nn(-c3c(Cl)cccc3Cl)c(=O)c3cnc(Nc4ccc(N5CCN(C)CC5)cc4)nc23)n1 [Example 252, 6-(2,6-dichlorophenyl)-8-[1-(2-methoxyethyl)-1H-pyrazol-3-yl]-2-{[4-(4-methylpiperazin-1-yl)phenyl]amino}pyrimido[4,5-d]pyridazin-5(6H)-one] | 0.4
COCn1ccc(-c2nn(-c3c(Cl)cccc3Cl)c(=O)c3cnc(Nc4ccc(N5CCN(C)CC5)cc4)nc23)n1 [Example 268, 6-(2,6-dichlorophenyl)-8-[1-(methoxymethyl)-1H-pyrazol-3-yl]-2-{[4-(4-methylpiperazin-1-yl)phenyl]amino}pyrimido[4,5-d]pyridazin-5(6H)-one] | 0.1
CCc1nn(-c2c(Cl)cccc2Cl)c(=O)c2cnc(Nc3ccc(CN4CCN(C)CC4)cc3)nc12 [Example 465, 6-(2,6-dichlorophenyl)-8-ethyl-2-({4-[(4-methylpiperazin-1-yl)methyl]phenyl}amino)pyrimido[4,5-d]pyridazin-5(6H)-one] | 0.88
CN1CCN(c2ccc(Nc3ncc4c(=O)n(-c5c(Cl)cccc5Cl)nc(-c5ccccn5)c4n3)cc2)CC1 [Example 103, 6-(2,6-dichlorophenyl)-2-{[4-(4-methylpiperazin-1-yl)phenyl]amino}-8-(pyridin-2-yl)pyrimido[4,5-d]pyridazin-5(6H)-one] | 0.2
Cc1nn(-c2c(Cl)cccc2Cl)c(=O)c2cnc(Nc3ccc(N4CCN(CCCN(C)C)CC4)cc3)nc12 [Example 517, 6-(2,6-dichlorophenyl)-2-[(4-{4-[3-(dimethylamino)propyl]piperazin-1-yl}phenyl)amino]-8-methylpyrimido[4,5-d]pyridazin-5(6H)-one] | 0.24
Cc1nn(-c2c(Cl)cccc2Cl)c(=O)c2cnc(Nc3ccc4c(c3)CCNC4(C)C)nc12 [Example 452, 6-(2,6-dichlorophenyl)-2-[(1,1-dimethyl-1,2,3,4-tetrahydroisoquinolin-6-yl)amino]-8-methylpyrimido[4,5-d]pyridazin-5(6H)-one] | 0.16
CN1CCN(c2ccc(Nc3ncc4c(=O)n(-c5c(Cl)cccc5Cl)nc(-c5cccc(C(=O)N(C)C)c5)c4n3)cc2)CC1 [Example 189, 3-[6-(2,6-dichlorophenyl)-2-{[4-(4-methylpiperazin-1-yl)phenyl]amino}-5-oxo-5,6-dihydropyrimido[4,5-d]pyridazin-8-yl]-N,N-dimethylbenzamide] | 0.02
Cc1nn(-c2c(Cl)cccc2Cl)c(=O)c2cnc(Nc3cccc(N4CCN(C5COC5)CC4)c3)nc12 [Example 512, 6-(2,6-dichlorophenyl)-8-methyl-2-({3-[4-(oxetan-3-yl)piperazin-1-yl]phenyl}amino)pyrimido[4,5-d]pyridazin-5(6H)-one] | 1.4
CN1CCN(c2ccc(Nc3ncc4c(=O)n(-c5c(Cl)cccc5Cl)nc(-c5cccc(F)n5)c4n3)cc2)CC1 [Example 243, 6-(2,6-dichlorophenyl)-8-(6-fluoropyridin-2-yl)-2-{[4-(4-methylpiperazin-1-yl)phenyl]amino}pyrimido[4,5-d]pyridazin-5(6H)-one] | < 1
C=CCn1nc(CCc2ccccc2)c2nc(Nc3ccc(N4CCN(C)CC4)cc3)ncc2c1=O [Example 7, 6-allyl-2-{[4-(4-methylpiperazin-1-yl)phenyl]amino}-8-(2-phenylethyl)pyrimido[4,5-d]pyridazin-5(6H)-one] | 250
Cc1ccccc1-n1nc(-c2cccs2)c2nc(Nc3ccc(N4CCCC4=O)cc3)ncc2c1=O [Example 128, 6-(2-methylphenyl)-2-{[4-(2-oxopyrrolidin-1-yl)phenyl]amino}-8-(2-thienyl)pyrimido[4,5-d]pyridazin-5(6H)-one] | 6
Cc1cc(Nc2ncc3c(=O)n(-c4ccccc4C)nc(-c4ccccc4)c3n2)ccc1N1CCCN(C(C)C)CC1 [Example 116, 2-{[4-(4-isopropyl-1,4-diazepan-1-yl)-3-methylphenyl]amino}-6-(2-methylphenyl)-8-phenylpyrimido[4,5-d]pyridazin-5(6H)-one] | 0.4

The next lines start with the values.

Ki [nM] | SMILES
1 | Cn1cnc(-c2nn(-c3c(Cl)cccc3Cl)c(=O)c3cnc(Nc4ccc5c(c4)CNCC5)nc23)c1 [Example 342, 6-(2,6-dichlorophenyl)-8-(1-methyl-1H-imidazol-4-yl)-2-(1,2,3,4-tetrahydroisoquinolin-7-ylamino)pyrimido[4,5-d]pyridazin-5(6H)-one]
0.24 | CN1CCc2ccc(Nc3ncc4c(=O)n(-c5c(Cl)cccc5Cl)nc(C(F)F)c4n3)cc2C1 [Example 475, 6-(2,6-dichlorophenyl)-8-(difluoromethyl)-2-[(2-methyl-1,2,3,4-tetrahydroisoquinolin-7-yl)amino]pyrimido[4,5-d]pyridazin-5(6H)-one]
400 | CN1CCN(c2ccc(Nc3ncc4c(=O)n(-c5ccccc5)nc(-c5ccc(Cl)cc5Cl)c4n3)cc2)CC1 [Example 42, 8-(2,4-dichlorophenyl)-2-{[4-(4-methylpiperazin-1-yl)phenyl]amino}-6-phenylpyrimido[4,5-d]pyridazin-5(6H)-one]
0.7 | COc1cc(Nc2ncc3c(=O)n(-c4ccccc4C)nc(-c4cccs4)c3n2)ccc1N1CCN(C(C)C)CC1 [Example 132, 2-{[4-(4-isopropylpiperazin-1-yl)-3-methoxyphenyl]amino}-6-(2-methylphenyl)-8-(2-thienyl)pyrimido[4,5-d]pyridazin-5(6H)-one]
1.9 | O=c1c2cnc(Nc3ccc4c(c3)CNCC43CC3)nc2c(-c2cncs2)nn1-c1c(Cl)cccc1Cl [Example 315, 6-(2,6-dichlorophenyl)-2-(2′,3′-dihydro-1′H-spiro[cyclopropane-1,4′-isoquinolin]-7′-ylamino)-8-(1,3-thiazol-5-yl)pyrimido[4,5-d]pyridazin-5(6H)-one]
0.93 | O=c1c2cnc(Nc3ccc4c(c3)CNCC43CC3)nc2c(C2CC2)nn1-c1c(Cl)cccc1Cl [Example 391, 8-cyclopropyl-6-(2,6-dichlorophenyl)-2-(2′,3′-dihydro-1′H-spiro[cyclopropane-1,4′-isoquinolin]-7′-ylamino)pyrimido[4,5-d]pyridazin-5(6H)-one]
0.49 | CC(=O)N1CCN(c2ccc(Nc3ncc4c(=O)n(-c5c(Cl)cccc5Cl)nc(-c5ccncc5)c4n3)cc2)CC1 [Example 378, 2-{[4-(4-acetylpiperazin-1-yl)phenyl]amino}-6-(2,6-dichlorophenyl)-8-(pyridin-4-yl)pyrimido[4,5-d]pyridazin-5(6H)-one]
0.1 | COc1cc(Nc2ncc3c(=O)n(-c4ccccc4Cl)nc(-c4ccccc4)c3n2)ccc1N1CCN(C(C)C)CC1 [Example 207, 6-(2-chlorophenyl)-2-({3-methoxy-4-[4-(propan-2-yl)piperazin-1-yl]phenyl}amino)-8-phenylpyrimido[4,5-d]pyridazin-5(6H)-one]
1 | Cc1cc(Nc2ncc3c(=O)n(-c4ccccc4C)nc(-c4cccs4)c3n2)ccc1N1CCCN(C(C)C)CC1 [Example 120, 2-{[4-(4-isopropyl-1,4-diazepan-1-yl)-3-methylphenyl]amino}-6-(2-methylphenyl)-8-(2-thienyl)pyrimido[4,5-d]pyridazin-5(6H)-one]
